Test results: ChEMBL document CHEMBL5579862, “Development of Novel Bacterial Topoisomerase Inhibitors Assisted by Computational Screening” (ACS Med Chem Lett, 2024)
≈ marks a conversion by molar mass, not a printed value. Each block holds one compound with its values, some of them ahead of it. Calls of active or inactive are those of the source. The calls are words filed in the database; no cut-off is given here.

Legend:
Staphylococcus aureus [1] = assay: Antibacterial activity against methicillin resistant Staphylococcus aureus USA300; type: functional
DNA gyrase [2] = target: DNA gyrase (Staphylococcus aureus, UniProt P0A0K8+P20831); assay: Inhibition of Staphylococcus aureus DNA gyrase using relaxed pBR322 DNA as substrate incubated for 30 mins by ethidium bromide staining based agarose gel electrophoresis method; type: protein-complex assay
Salmonella typhimurium [3] = assay: Antibacterial activity against efflux deficient Salmonella typhimurium 14028 deltatolC1::kan; type: functional, Salmonella enterica subsp. enterica serovar Typhimurium; conditions: Salmonella enterica
[4] = target: T1, Topoisomerase IV (Staphylococcus aureus) (UniProt P0C1U9+P0C1S7); assay: Inhibition of Staphylococcus aureus DNA topoisomerase IV assessed as accumulation of double strand breaks incubated at 37 degreeC for 30 mins followed by incubation at 45 degreeC for 30 mins by ethidium bromide based agarose gel electrophoresis; type: protein-complex assay; conditions: time 60.0 min
Staphylococcus aureus [5] = assay: Antibacterial activity against Staphylococcus aureus D83N; type: functional
Topoisomerase IV = Topoisomerase IV (Staphylococcus aureus, UniProt P0C1S7+P0C1U9); assay: Inhibition of Staphylococcus aureus topoisomerase-IV assessed as reduction in decatenation using kinetoplast DNA as substrate incubated for 20 mins by ethidium bromide staining based agarose gel electrophoresis method; type: protein-complex assay
[6] = target: T1, Topoisomerase IV (Staphylococcus aureus); assay: Inhibition of Staphylococcus aureus DNA topoisomerase IV assessed as accumulation of single strand breaks incubated at 37 degreeC for 30 mins followed by incubation at 45 degreeC for 30 mins by ethidium bromide based agarose gel electrophoresis; type: protein-complex assay; conditions: time 60.0 min
DNA gyrase [7] = target: DNA gyrase (Escherichia coli, UniProt P0AES4+P0AES6); assay: Inhibition of Escherichia coli DNA gyrase using relaxed pBR322 DNA as substrate incubated at 37 degreeC for 30 to 45 mins followed by incubation at 75 degreeC for 10 mins by ethidium bromide staining based agarose gel electrophoresis method; type: protein-complex assay
Staphylococcus aureus [8] = assay: Antibacterial activity against Staphylococcus aureus ATCC 29213; type: functional
Acinetobacter baumannii = assay: Antibacterial activity against Acinetobacter baumannii ATCC 19606; type: functional
Salmonella typhimurium [9] = assay: Antibacterial activity against Salmonella typhimurium ATCC 14028; type: functional, Salmonella enterica subsp. enterica serovar Typhimurium; conditions: Salmonella enterica
Escherichia coli = assay: Antibacterial activity against Escherichia coli ATCC 25922; type: functional
[10] = target: DNA gyrase (Staphylococcus aureus) (UniProt P0A0K8+P20831); assay: Inhibition of Staphylococcus aureus DNA gyrase assessed as accumulation of single strand breaks at 10 uM incubated at 37 degreeC for 30 mins followed by incubation at 45 degreeC for 30 mins by ethidium bromide based agarose gel electrophoresis; type: protein-complex assay; conditions: time 60.0 min

SMILES: COc1ccc2ncc(F)c(CCN3CCC(C(O)Cc4ccc(C)cc4)CC3)c2n1 (stereo not drawn)
- MIC (Staphylococcus aureus [1]): 0.25 µg/mL (≈ 0.59 µM)
- IC50 (DNA gyrase [2]): 0.24 µM
- MIC (Salmonella typhimurium [3]): 1 µg/mL (≈ 2.36 µM)
- inhibition [4]: < 1%
- MIC (Staphylococcus aureus [5]): 8 µg/mL (≈ 18.9 µM)
- IC50 (Topoisomerase IV): 2.29 µM
- inhibition [6]: Active
- IC50 (DNA gyrase [7]): 12.4 µM

SMILES: COc1ccc2ncc(F)c(CCN3CCC(C(N)Cc4ccc5c(c4)OCCO5)CC3)c2n1 (stereo not drawn)
- MIC (Staphylococcus aureus [5]): ≥ 16 µg/mL

SMILES: COc1ccc2ncc(F)c(CCN3CCC([C@H](O)[C@H](O)c4ccc5c(c4)OCCO5)CC3)c2n1
- MIC (Staphylococcus aureus [8]): ≤ 0.13 µg/mL

SMILES: COc1ccc2ncc(F)c(CCN3CCC([C@H](O)[C@@H](O)c4ccc(C)cc4)CC3)c2n1
- MIC (Staphylococcus aureus [1]): 2 µg/mL (≈ 4.55 µM)
- MIC (Acinetobacter baumannii): 32 µg/mL (≈ 72.8 µM)

SMILES: COc1ccc2ncc(F)c(CCN3CCC(/C=C/c4ccc5c(c4)NC(=O)CO5)CC3)c2n1
- MIC (Staphylococcus aureus [1]): ≤ 0.25 µg/mL
- MIC (Salmonella typhimurium [9]): 16 µg/mL (≈ 34.6 µM)
- MIC (Salmonella typhimurium [3]): 0.25 µg/mL (≈ 0.541 µM)
- MIC (Acinetobacter baumannii): 8 µg/mL (≈ 17.3 µM)
- MIC (Staphylococcus aureus [5]): 16 µg/mL (≈ 34.6 µM)
- MIC (Staphylococcus aureus [8]): 0.5 µg/mL (≈ 1.08 µM)

SMILES: COc1ccc2ncc(F)c(CCN3CCC(NCc4ccc(C)cc4)CC3)c2n1
- MIC (Escherichia coli): 4 µg/mL (≈ 9.79 µM)
- MIC (Staphylococcus aureus [1]): ≤ 0.25 µg/mL
- MIC (Salmonella typhimurium [9]): 32 µg/mL (≈ 78.3 µM)
- IC50 (DNA gyrase [2]): 0.004 µM
- MIC (Salmonella typhimurium [3]): 0.5 µg/mL (≈ 1.22 µM)
- MIC (Acinetobacter baumannii): 4 µg/mL (≈ 9.79 µM)
- inhibition [4]: < 1%
- MIC (Staphylococcus aureus [5]): 16 µg/mL (≈ 39.2 µM)
- IC50 (Topoisomerase IV): 0.69 µM
- inhibition [10]: Active
- MIC (Staphylococcus aureus [8]): ≤ 0.25 µg/mL
- inhibition [6]: Active

SMILES: COc1ccc2ncc(F)c(CCN3CCC([C@@H](O)[C@@H](O)c4ccc(C)cc4)CC3)c2n1
- MIC (Staphylococcus aureus [1]): 0.25 µg/mL (≈ 0.569 µM)
- MIC (Staphylococcus aureus [8]): 0.13 µg/mL (≈ 0.296 µM)

SMILES: COc1ccc2ncc(F)c(CCN3CCC(/C=C/c4ccc(C)cc4)CC3)c2n1
- MIC (Salmonella typhimurium [9]): ≥ 64 µg/mL
- MIC (Salmonella typhimurium [3]): 0.5 µg/mL (≈ 1.23 µM)
- MIC (Staphylococcus aureus [5]): ≥ 32 µg/mL
- MIC (Staphylococcus aureus [8]): 0.25 µg/mL (≈ 0.616 µM)

SMILES: COc1ccc2ncc(F)c(CCN3CCC(/C=C\c4ccc5c(c4)OCCO5)CC3)c2n1
- MIC (Escherichia coli): ≥ 64 µg/mL
- MIC (Staphylococcus aureus [1]): 8 µg/mL (≈ 17.8 µM)
- MIC (Salmonella typhimurium [9]): ≥ 64 µg/mL
- MIC (Salmonella typhimurium [3]): 4 µg/mL (≈ 8.9 µM)
- MIC (Acinetobacter baumannii): 64 µg/mL (≈ 142 µM)
- MIC (Staphylococcus aureus [5]): ≥ 16 µg/mL
- MIC (Staphylococcus aureus [8]): 8 µg/mL (≈ 17.8 µM)

SMILES: COc1ccc2ncc(F)c(CCN3CCC(C(O)Cc4ccc5c(c4)OCC(=O)N5)CC3)c2n1 (stereo not drawn)
- MIC (Salmonella typhimurium [3]): 0.125 µg/mL (≈ 0.26 µM)

SMILES: COc1ccc2ncc(F)c(CCN3CCC(C(O)Cc4ccc5c(c4)OCCO5)CC3)c2n1 (stereo not drawn)
- MIC (Staphylococcus aureus [5]): 4 µg/mL (≈ 8.56 µM)

SMILES: COc1ccc2ncc(F)c(CCN3CCC(C(N)Cc4ccc(C)cc4)CC3)c2n1 (stereo not drawn)
- IC50 (DNA gyrase [2]): 5.05 µM
- inhibition [4]: < 1%
- MIC (Staphylococcus aureus [5]): 32 µg/mL (≈ 75.7 µM)
- IC50 (Topoisomerase IV): 82.6 µM
- inhibition [10]: Active
- inhibition [6]: Active
- IC50 (DNA gyrase [7]): > 400 µM

SMILES: COc1ccc2ncc(F)c(CCN3CCC(/C=C\c4ccc5c(c4)NC(=O)CO5)CC3)c2n1
- MIC (Salmonella typhimurium [3]): 16 µg/mL (≈ 34.6 µM)
- MIC (Acinetobacter baumannii): 32 µg/mL (≈ 69.2 µM)
- MIC (Staphylococcus aureus [5]): ≥ 64 µg/mL
- MIC (Staphylococcus aureus [8]): ≥ 64 µg/mL

SMILES: O=c1ccc2ncc(=O)n3c2n1C[C@H]3CN1CCC(NCc2cc3c(cn2)OCCC3)CC1 [GEPOTIDACIN]
- MIC (Escherichia coli): 1 µg/mL (≈ 2.23 µM)
- MIC (Salmonella typhimurium [9]): 2 µg/mL (≈ 4.46 µM)
- MIC (Salmonella typhimurium [3]): 0.125 µg/mL (≈ 0.279 µM)
- MIC (Acinetobacter baumannii): 8 µg/mL (≈ 17.8 µM)
- MIC (Staphylococcus aureus [5]): 8 µg/mL (≈ 17.8 µM)

SMILES: COc1ccc2ncc(F)c(CCN3CCC([C@@H](O)[C@H](O)c4ccc(C)cc4)CC3)c2n1
- MIC (Staphylococcus aureus [1]): 2 µg/mL (≈ 4.55 µM)
- MIC (Salmonella typhimurium [3]): 0.5 µg/mL (≈ 1.14 µM)

SMILES: COc1ccc2ncc(F)c(CCN3CCC([C@H](O)[C@@H](O)c4ccc5c(c4)NC(=O)CO5)CC3)c2n1
- MIC (Salmonella typhimurium [3]): 0.25 µg/mL (≈ 0.503 µM)

SMILES: COc1ccc2ncc(F)c(CCN3CCC(CCc4ccc(C)cc4)CC3)c2n1
- MIC (Salmonella typhimurium [9]): ≥ 64 µg/mL
- MIC (Staphylococcus aureus [5]): 4 µg/mL (≈ 9.82 µM)

SMILES: COc1ccc2ncc(F)c(CCN3CCC([C@@H](O)[C@H](O)c4ccc5c(c4)NC(=O)CO5)CC3)c2n1
- MIC (Staphylococcus aureus [5]): ≥ 32 µg/mL

SMILES: COc1ccc2ncc(F)c(CCN3CCC([C@@H](O)[C@@H](O)c4ccc5c(c4)OCCO5)CC3)c2n1
- MIC (Staphylococcus aureus [1]): 0.03 µg/mL (≈ 0.062 µM)

SMILES: COc1ccc2ncc(F)c(CCN3CCC(CCc4ccc5c(c4)OCCO5)CC3)c2n1
- MIC (Salmonella typhimurium [3]): 0.25 µg/mL (≈ 0.554 µM)
- MIC (Staphylococcus aureus [5]): 8 µg/mL (≈ 17.7 µM)

SMILES: COc1ccc2ncc(F)c(CCN3CCC([C@@H](O)[C@H](O)c4ccc5c(c4)OCCO5)CC3)c2n1
- MIC (Staphylococcus aureus [1]): 1 µg/mL (≈ 2.07 µM)

SMILES: COc1ccc2ncc(F)c(CCN3CCC(/C=C\c4ccc(C)cc4)CC3)c2n1
- MIC (Staphylococcus aureus [1]): 4 µg/mL (≈ 9.86 µM)
- MIC (Salmonella typhimurium [3]): 8 µg/mL (≈ 19.7 µM)
- MIC (Staphylococcus aureus [5]): 32 µg/mL (≈ 78.9 µM)
- MIC (Staphylococcus aureus [8]): 4 µg/mL (≈ 9.86 µM)

SMILES: COc1ccc2ncc(F)c(CCN3CCC(C(=O)Cc4ccc5c(c4)OCCO5)CC3)c2n1
- MIC (Escherichia coli): 64 µg/mL (≈ 137 µM)
- MIC (Staphylococcus aureus [1]): 4 µg/mL (≈ 8.59 µM)
- MIC (Salmonella typhimurium [3]): ≥ 1 µg/mL
- MIC (Acinetobacter baumannii): 64 µg/mL (≈ 137 µM)
- MIC (Staphylococcus aureus [5]): 32 µg/mL (≈ 68.7 µM)
- MIC (Staphylococcus aureus [8]): 4 µg/mL (≈ 8.59 µM)

SMILES: COc1ccc2ncc(F)c(CCN3CCC([C@H](O)[C@H](O)c4ccc(C)cc4)CC3)c2n1
- MIC (Staphylococcus aureus [1]): 0.13 µg/mL (≈ 0.296 µM)
- IC50 (DNA gyrase [2]): 0.065 µM
- inhibition [4]: < 1%
- IC50 (Topoisomerase IV): 3.31 µM
- inhibition [6]: Active
- IC50 (DNA gyrase [7]): 17.1 µM

- MIC (Escherichia coli): 2 µg/mL (≈ 4.18 µM)
- MIC (Salmonella typhimurium [9]): 16 µg/mL (≈ 33.4 µM)
- MIC (Acinetobacter baumannii): 4 µg/mL (≈ 8.36 µM)
- MIC (Staphylococcus aureus [8]): ≤ 0.13 µg/mL
SMILES: COc1ccc2ncc(F)c(CCN3CCC(C(=O)Cc4ccc5c(c4)NC(=O)CO5)CC3)c2n1

SMILES: COc1ccc2ncc(F)c(CCN3CCC(/C=C/c4ccc5c(c4)OCCO5)CC3)c2n1
- MIC (Escherichia coli): 8 µg/mL (≈ 17.8 µM)
- MIC (Staphylococcus aureus [1]): 0.5 µg/mL (≈ 1.11 µM)
- MIC (Salmonella typhimurium [9]): 64 µg/mL (≈ 142 µM)
- MIC (Salmonella typhimurium [3]): 0.125 µg/mL (≈ 0.278 µM)
- MIC (Acinetobacter baumannii): 8 µg/mL (≈ 17.8 µM)
- MIC (Staphylococcus aureus [5]): 2 µg/mL (≈ 4.45 µM)
- MIC (Staphylococcus aureus [8]): 0.25 µg/mL (≈ 0.556 µM)
